In article PMC10799935, “Discovery of a peripheral 5HT2A antagonist as a clinical candidate for metabolic dysfunction-associated steatohepatitis” (Nature Communications, 2024):
“Also recorded” adds a separate entry of the source.

Legend:
[1] = Liver microsomal stability, rat; format: in vitro ADME
Source text: (§1) Based on the structure and activity of the two series above, we replaced the alcohol with –CH2.

[2] = Liver microsomal stability, human; format: in vitro ADME
Source text: as §1

[3] = Liver microsomal stability (species not stated); format: in vitro ADME
[4] = molecular target: T1, 5HT2A (Homo sapiens, UniProt P28223); assay: Human 5HT2A inhibition assay (FLIPR calcium 6, 5HT stimulus, stably transfected HEK293 cells); format: cell-based; parameters: expressed in transfected cells; host or cells: HEK293; settings: for inhibition at 1 µM: HEK293, 1 μM, read-out: % Inhibition at 1 μM (SD)
Experimental: The derivatives were evaluated at a concentration of 1 μM for their antagonist activity on the 5HT2A receptor (Tables 1–3)[33],[34]. […] The cells were stained with 100 μL of cytosolic calcium dye using the FLIPR calcium 6 assay solution (Molecular devices, #R8190) supplemented with 2.5 mM probenecid (Sigma; P8761) and incubated for 1 h at 37 °C. After 1 h, the designated amount of the compound was treated in each well and incubated for another 1 h at 37 °C. […] Experimental conditions for the 5HT subtypes can be found in the Supporting Information (Supplementary Table 1).

[5] = test system: STZ+HFD mice; assay: STZ+HFD mice (modified STAM) NASH and liver fibrosis model; format: in vivo, mouse; settings: 11c 5 or 10 mg/kg, OCA 10 mg/kg
Experimental: Mice were intraperitoneally injected with low-dose streptozotocin (40 mg/kg; 5 times) in 7-week-old mice. After injection with STZ, mice were fed an HFD for 16 weeks to induce NASH and liver fibrosis. After 16 weeks of an HFD, mice were fed a standard chow diet to mimic the NASH patient under […]
nine weeks by oral gavage (Reviewer-only data 4). […]
inflammation, hepatocyte ballooning, and total NAFLD activity score by the NASH CRN histological scoring system (Reviewer-only data 4B, C). […]
hepatic fibrosis stage similar to STZ+HFD mice treated with OCA (Reveiwer-only data 4D, E). STZ+HFD mice […]
function (Reviwer-only data 4F). […]
group (Reviewer-only data 4G). Furthermore, the expression of genes related to lipogenesis and fibrosis was reduced in the compound 11c-treated group in a dose-dependent manner (Reviewer-only data 4H, I). These […]
Reviewer-only Data 4. Compound 11c treatment with dietary modification ameliorates NASH and liver fibrosis in a dose-dependent manner. (A) Experimental scheme for in vivo efficacy of compound 11c in […]
(STZ+HFD mice. (B-I) STZ+HFD mice fed HFD for 16 weeks were switched to SCD for 9 weeks and were treated with vehicle, compound 11c, or OCA by daily oral gavage. (B) Representative liver histology by H&E staining […]
mg/kg. Scale bars, 100µm. […]
mice; n = 9 per group. (D) Representative liver histology by Masson’s trichrome staining from vehicle, […]
Scale bars, 100µm. (E) Fibrosis stage
(F) Serum AST and ALT levels; n = 9 per […]
group. (G) Serum TG levels and hepatic TG levels; n = 9 per group. (H) Relative mRNA expression of lipogenesis-related genes as assessed by qRT-PCR in the liver; n = 9 per group. (I) Relative mRNA expression of fibrosis-related genes as assessed by qRT-PCR in the liver; n = 9 per group. Data are expressed as the means ±SEM.
[…], **P<0.01, one-way ANOVA with post hoc Tukey’s test (C, E, F, G, H, I). […]
Representative liver histology by Masson’s trichrome staining and Sirius Red staining. Scale bars, 100µm. (E) […]
one-way ANOVA with post hoc Tukey’s test (C, E).
Comment 2: In "Methods", the author claims to use HEK293 cells (a type of cell derived from kidney embryos) for cell research, however, the data in Table 5 are the results of hepatocyte experiments. What happened? Response: We appreciate the Reviewer’s comment. HEK293 cells were used for inhibition assay (cell research), shown in Table 1-3 of the main manuscript, while, hepatic cell lines were used for chemical profiling and for “Hepatocyte stability” test, shown in Table 5 of the main manuscript. The “Selectivity” of Compound 11c for different 5HT subtypes is elucidated in response to Comment 6.
We have modified the Methods section to provide clarity.

[6] = molecular target: T1, 5HT2A; assay: Human 5HT2A inhibition assay (FLIPR calcium 6, 5HT stimulus, stably transfected HEK293 cells); format: cell-based; parameters: expressed in transfected cells; host or cells: HEK293; settings: HEK293, 10 μM; read-out: % Inhibition at 10 μM (SD)

T1 sequence (P28223 whole entry): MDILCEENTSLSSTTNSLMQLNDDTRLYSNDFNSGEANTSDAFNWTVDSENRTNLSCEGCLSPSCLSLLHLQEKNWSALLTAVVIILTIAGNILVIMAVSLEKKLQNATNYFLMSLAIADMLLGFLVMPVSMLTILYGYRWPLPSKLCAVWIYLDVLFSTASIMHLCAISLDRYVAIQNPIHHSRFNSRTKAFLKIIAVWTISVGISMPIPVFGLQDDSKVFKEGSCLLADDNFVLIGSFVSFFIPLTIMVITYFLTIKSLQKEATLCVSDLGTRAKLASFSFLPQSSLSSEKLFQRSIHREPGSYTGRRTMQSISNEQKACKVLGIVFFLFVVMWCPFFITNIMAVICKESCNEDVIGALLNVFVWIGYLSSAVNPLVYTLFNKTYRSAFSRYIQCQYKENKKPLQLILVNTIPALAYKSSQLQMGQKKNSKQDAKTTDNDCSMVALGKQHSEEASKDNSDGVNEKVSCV

Compound	metabolic stability in the liver microsome (% after 30 min incubation) [1] [%]	metabolic stability in the liver microsome (% after 30 min incubation) [2] [%]	liver microsomal stability (in words) [3]	IC50 [4] [nM]	inhibition at 1 µM [4] [%]	inhibition at 10 µM [6] [%]	also measured
O=c1[nH]c2ccccc2c(=O)n1CCN1CCC(=C2c3ccc(Cl)cc3CCc3cccnc32)CC1 [Compound 11d]	0.50	5.33	metabolically unstable; also recorded: low liver microsomal stability	47			IC50 (nM) [4]: lower in vitro activity than 11c; % Inhibition at 1 μM (SD) ([4]; 1 μM): 102 ± 0.03%
CC[C@H]1[C@@H](O)[C@@H]2[C@H](CC[C@]3(C)[C@@H]([C@H](C)CCC(=O)O)CC[C@@H]23)[C@@]2(C)CC[C@@H](O)C[C@@H]12 [OCA, Obeticholic acid, reference compound]							hepatic fibrosis stage [5]: improvement
CN1CCC(=C2c3ccc(Cl)cc3CCc3cccnc32)CC1 [Compound 6]				119	90 ± 0.62	95 ± 0.31	
Cc1nc2n(c(=O)c1CCN1CCC(=C3c4ccc(Cl)cc4CCc4cccnc43)CC1)CCCC2 [Compound 11b]	11.7	17.3	metabolically unstable; also recorded: rapidly metabolized in the liver microsome	14	92.63 ± 0.6		
CC(C)NC(=S)N1CCC(=C2c3ccc(Cl)cc3CCc3cccnc32)CC1 [Compound 5]						8	
CC(=O)N1CCC(=C2c3ccc(Cl)cc3CCc3cccnc32)CC1 [Compound 3]						-1	
